Experiment: Anion-exchange HPLC of [33P]-labeled products of PPIP5K2-mediated phosphorylation (relative polarity)
Type: physicochemical
Conditions: PartiSphere SAX column, NH4H2PO4 gradient pH 4.0; elution order 5PA-IP5 < 5PCF2Am-IP5 < 5PCP-IP5 < 5PCF2P-IP5 < 5PP-IP5
Description: Lastly, we also developed a protocol by which we can infer the relative polarities of each of the analogs. […] As shown above, 5PA-IP5 and the other analogs each bind in potentially productive orientations in which the 1-phosphate is presented to the active site. Therefore, we attempted to radiolabel each of the analogs by incorporation of [33]Pi from [33]P-γ-ATP, with the objective of resolving each of the [33]P-labeled products by anion-exchange HPLC. We reasoned that this assay could provide an empirical comparison of the relative degree of acidity of each reaction product - and more instructively - the substrates themselves. It should be emphasized that this experiment cannot inform on the relative rates of phosphorylation, in large part because the experimental protocol (low mass levels of high-specific radioactivity of [33]P-γ-ATP) are not appropriate for biologically-relevant kinetic determinations.
Figure 6 HPLC analysis of the products of PPIP5K-mediated phosphorylation of 5PP-IP5 and the various analogs. […]
Kinase activity was studied at 37°C by incubating 700 ng PPIP5K2^1-366 separately with each individual 10 μM test compound and 50 μM ATP plus 60,000 CPM of [^33P-γ]ATP for 30 mins. Assays were quenched with 0.2 volumes of 2 M perchloric acid, neutralized, and [^33P]-labeled products were analyzed by ion-exchange HPLC, using a 4.6 × 125 mm, 5 μm PartiSphere SAX column. […]

O=P(O)(O)O[C@H]1[C@@H](OP(=O)(O)O)[C@H](OP(=O)(O)O)[C@@H](OP(=O)(O)C(F)(F)P(=O)(O)O)[C@H](OP(=O)(O)O)[C@H]1OP(=O)(O)O [5PCF2P-IP5]
Relative HPLC elution of phosphorylated product (protonation state / global polarity compared with 5PP-IP5): most closely resembles the natural molecule with regards to its protonation state
